Measurements as given in patent publication US11992535B2, “Compounds and probes for imaging huntingtin protein” (CHDI Foundation, Inc., priority 2019, dated 2024).
pEC50: −log10 of the molar value. Read-outs that look alike come from different tables or passages of the source.

Biological target: aggregated MBP-HTT(1-89)Q46-His(6×) (Exonl-Q46) protein (Q46 protein aggregates) (Homo sapiens (Human), UniProt P42858, INS38QQQQQQQQQQQQQQQQQQQQQQQQQ)
Test: Q46 Radioligand Binding Assay
Settings: read-out: Q46_RBA EC50_
Protocol: Q46 Radioligand Binding Assay
For radioligand binding assays (RBA) MBP-HTT(1-89)Q46-His(6×) (“Exonl-Q46”) protein was generated based on a previous publication (Scherzinger et al. Cell, Vol. 90, 549-558, Aug. 8, 1997). For experiments 30 μM MBP-Exonl-Q46 was incubated with 150 μg/mL thrombin in assay buffer (150 mM NaCl, 50 mM Tris pH 8.0) and 2 mM CaCl2 for 16 hours at 37° C. Aggregated Exonl-Q46 was pelleted by centrifugation for 5 minutes at 13,000 rpm in a bench top centrifuge and re-dissolved in the same volume of assay buffer. Test compounds were prepared by titration in DMSO at 11 concentrations from 63 μM to 2 nM. For the RBA, Q46 protein aggregates and test compounds were pre-incubated in assay buffer for 20 minutes at room temperature, in 100 μL/well in a 96-well plate (pp, round bottom). Then, ligand was added in 50 μL/well and incubated for 60 minutes at 37° C. Final assay concentrations were 1 μM to 30 μM test compound, 1 μM Exonl-Q46 protein (equivalent monomer concentration) and 0.3 nM ligand [^3H3-methyl]-5-((5-methoxypyridin-2-yl)methoxy)-2-(pyrazin-2-yl)benzo[d]oxazole. Samples were transferred onto GF/B filter plates and washed 2× with 200 μL PBS using a Filtermate Harvester. After drying filter plates for 1 hour at 55° C., the back of the plates were sealed with foil and 30 μL/well scintillation fluid (Packard MicroScint 40) added, incubated for 15 minutes in the dark and counted in a MicroBeta reader. For analysis, replicate data from independent assay plates were normalized towards 0% and 100% inhibition using control wells of vehicle (0% inhibition) and 1 μM unlabelled [^3H3-methyl]-5-((5-methoxypyridin-2-yl)methoxy)-2-(pyrazin-2-yl)benzo[d]oxazole (100% inhibition). IC50 values were determined with a sigmoidal inhibition model with four variables (top, bottom, slope, IC50) in a global fit using the normalized replicate data.

[1] = displacement of 0.3 nM [3H3-methyl]-5-((5-methoxypyridin-2-yl)methoxy)-2-(pyrazin-2-yl)benzo[d]oxazole from 1 μM Exonl-Q46 aggregates, method calls the values IC50
[2] = same radioligand displacement on Exonl-Q46 aggregates

Sequence of aggregated MBP-HTT(1-89)Q46-His(6×) (Exonl-Q46) protein (Q46 protein aggregates) (P42858 other isoform, or with tags, fused parts or gaps, stated change not applied): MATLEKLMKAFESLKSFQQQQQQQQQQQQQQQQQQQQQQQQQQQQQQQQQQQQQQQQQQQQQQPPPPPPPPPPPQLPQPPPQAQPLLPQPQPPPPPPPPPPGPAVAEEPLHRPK

SMILES: Cn1cc(C(=O)N2CCc3ccc(OCc4ccc(O)cn4)cc3C2)ccc1=O [Example 40, 5-(7-((5-Hydroxypyridin-2-yl)methoxy)-1,2,3,4-tetrahydroisoquinoline-2-carbonyl)-1-methylpyridin-2(1H)-one]
- pEC50 [1]: 6.48
- pEC50 [2]: 6.30 to 7.00

SMILES: COc1ccc(COc2ccc3c(c2)CN(C(=O)c2ccc(=O)n(C)c2)CC3)nc1 [Example 41, 5-(7-((5-Methoxypyridin-2-yl)methoxy)-1,2,3,4-tetrahydroisoquin-oline-2-carbonyl)-1-methylpyridin-2(1H)-one]
- pEC50 [1]: 7.63
- pEC50 [2]: > 7.00
